Patent US12661335B2, “Halogenated xanthene-containing topical anti-gram-positive bacterial ophthalmic composition and method” (Provectus Pharmatech, Inc., priority 2021, dated 2026)

Tested on: M. smegmatis 607 ™ (RB mutant)
Format: cell-based, Mycobacterium smegmatis

Compound: Capreomycin
- susceptibility of the RB-resistant strain to TB drugs: susceptible

Compound: CCc1cc(C(N)=S)ccn1 [Ethionamide (ETH), Ethionamide]
- susceptibility of the RB-resistant strain to TB drugs: susceptible

Compound: NCC[C@H](O)C(=O)N[C@@H]1C[C@H](N)[C@@H](O[C@H]2O[C@H](CN)[C@@H](O)[C@H](O)[C@H]2O)[C@H](O)[C@H]1O[C@H]1O[C@H](CO)[C@@H](O)[C@H](N)[C@H]1O [Amikacin]
- susceptibility of the RB-resistant strain to TB drugs: susceptible

Compound: NC[C@H]1O[C@@H](O[C@H]([C@H]2O[C@@H](n3ccc(=O)[nH]c3=O)[C@H](O)[C@@H]2O)[C@H](NCCCC(=O)NCc2ccc(N3CCC(Oc4ccc(OC(F)(F)F)cc4)CC3)cc2)C(N)=O)[C@H](O)[C@@H]1O [APPB, aminouridyl phenoxypiperidinylbenzyl butanamide]
- susceptibility of the RB-resistant strain to TB drugs: susceptible

Compound: NNC(=O)c1ccncc1 [Isoniazid (INH), Isoniazid]
- susceptibility of the RB-resistant strain to TB drugs: cross-resistance
